Patent US10975080B2, “Compounds and compositions for inhibiting the activity of SHP2” (NOVARTIS AG, priority 2015, dated 2021)

target: SHP2 (Homo sapiens (Human), UniProt Q06124); assay: SHP2 Allosteric Inhibition Assay; format: biochemical; details: 0.5 nM SHP2 with 0.5 μM peptide IRS1_pY1172(dPEG8)pY1222; surrogate substrate DiFMUP; 25° C.; read-out: SHP2 IC50
Description: SHP2 Allosteric Inhibition Assay
SHP2 is allosterically activated through binding of bis-tyrosyl-phosphorylated peptides to its Src Homology 2 (SH2) domains. The latter activation step leads to the release of the auto-inhibitory interface of SHP2, which in turn renders the SHP2 protein tyrosine phosphatase (PTP) active and available for substrate recognition and reaction catalysis. The catalytic activity of SHP2 was monitored using the surrogate substrate DiFMUP in a prompt fluorescence assay format.
After 30-60 minutes incubation at 25° C., the surrogate substrate DiFMUP (Invitrogen, cat #D6567) was added to the reaction and incubated at 25° C. for 30 minutes. […] The inhibitor dose response curves were analyzed using normalized IC50 regression curve fitting with control based normalization.

Row | Structure (SMILES) | IC50 [nM]
1 | Cn1c(N2CCC3(CCC[C@H]3N)CC2)nc2[nH]nc(-c3ccnc(N)c3Cl)c2c1=O [Example 16, (R)-3-(2-amino-3-chloropyridin-4-yl)-6-(1-amino-8-azaspiro[4.5]decan-8-yl)-5-methyl-1,5-dihydro-4H-pyrazolo[3,4-d]pyrimidin-4-one] | 360
2 | Cn1c(N2CCC3(CCCCC3N)CC2)nc2[nH]nc(-c3cccc(Cl)c3Cl)c2c1=O (stereo not drawn) [Example 24, 6-(7-amino-3-azaspiro[5.5]undecan-3-yl)-3-(2,3-dichlorophenyl)-5-methyl-1,5-dihydro-4H-pyrazolo[3,4-d]pyrimidin-4-one] | 72
3 | Cn1c(N2CCC(C)(CN)CC2)nc2[nH]nc(-c3ccnc(Cl)c3Cl)c2c1=O [Example 25, 6-(4-(aminomethyl)-4-methylpiperidin-1-yl)-3-(2,3-dichloropyridin-4-yl)-5-methyl-1,5-dihydro-4H-pyrazolo[3,4-d]pyrimidin-4-one] | 100
4 | Cn1c(N2CCC(C)(CN)CC2)nc2[nH]nc(-c3cccc(C(F)(F)F)c3Cl)c2c1=O [Example 26, 6-(4-(aminomethyl)-4-methylpiperidin-1-yl)-3-(2-chloro-3-(trifluoromethyl)phenyl)-5-methyl-1,5-dihydro-4H-pyrazolo[3,4-d]pyrimidin-4-one] | 127
5 | C[C@@H]1OCC2(CCN(c3nc4[nH]nc(-c5c(F)ccc(Cl)c5Cl)c4c(=O)n3C)CC2)[C@@H]1N [Example 27, 6-((3S,4S)-4-amino-3-methyl-2-oxa-8-azaspiro[4.5]decan-8-yl)-3-(2,3-dichloro-6-fluorophenyl)-5-methyl-1,5-dihydro-4H-pyrazolo[3,4-d]pyrimidin-4-one] | 450

These reach a lower IC50. Values come first.

Row | IC50 [nM] | Structure (SMILES)
6 | 44 | Cn1c(N2CCC3(CC[C@@H]3N)CC2)nc2[nH]nc(-c3cccc(Cl)c3Cl)c2c1=O [Example 17, (S)-6-(1-amino-7-azaspiro[3.5]nonan-7-yl)-3-(2,3-dichlorophenyl)-5-methyl-1,5-dihydro-4H-pyrazolo[3,4-d]pyrimidin-4-one]
7 | 43 | COc1nccc(-c2n[nH]c3nc(N4CCC5(CC4)CO[C@@H](C)[C@H]5N)n(C)c(=O)c23)c1Cl [Example 18, 6-((3S,4S)-4-amino-3-methyl-2-oxa-8-azaspiro[4.5]decan-8-yl)-3-(3-chloro-2-methoxypyridin-4-yl)-5-methyl-1,5-dihydro-4H-pyrazolo[3,4-d]pyrimidin-4-one]
8 | 46 | Cn1c(N2CCC3(CCC[C@H]3N)CC2)nc2[nH]nc(-c3ccccc3)c2c1=O [Example 19, (R)-6-(1-amino-8-azaspiro[4.5]decan-8-yl)-5-methyl-3-phenyl-1,5-dihydro-4H-pyrazolo[3,4-d]pyrimidin-4-one]
9 | 50 | Cn1c(N2CCC3(CC2)COC[C@H]3N)nc2[nH]nc(-c3cccc(Cl)c3Cl)c2c1=O [Example 20, (S)-6-(4-amino-2-oxa-8-azaspiro[4.5]decan-8-yl)-3-(2,3-dichlorophenyl)-5-methyl-1,5-dihydro-4H-pyrazolo[3,4-d]pyrimidin-4-one]
10 | 54 | Cn1c(N2CCC3(CC2)COC[C@H]3N)nc2[nH]nc(-c3ccnc(Cl)c3Cl)c2c1=O [Example 21, (S)-6-(4-amino-2-oxa-8-azaspiro[4.5]decan-8-yl)-3-(2,3-dichloropyridin-4-yl)-5-methyl-1,5-dihydro-4H-pyrazolo[3,4-d]pyrimidin-4-one]
11 | 57 | Cn1c(N2CCC3(CCC[C@H]3N)CC2)nc2[nH]nc(-c3ccnc(Cl)c3Cl)c2c1=O [Example 22, (R)-6-(1-amino-8-azaspiro[4.5]decan-8-yl)-3-(2,3-dichloropyridin-4-yl)-5-methyl-1,5-dihydro-4H-pyrazolo[3,4-d]pyrimidin-4-one]
12 | 64 | Cn1c(N2CCC3(CC2)COC[C@H]3N)nc2[nH]nc(-c3ccnc(N)c3Cl)c2c1=O [Example 23, (S)-3-(2-amino-3-chloropyridin-4-yl)-6-(4-amino-2-oxa-8-azaspiro[4.5]decan-8-yl)-5-methyl-1,5-dihydro-4H-pyrazolo[3,4-d]pyrimidin-4-one]
